Measurements: US4880807A, “Nicotinoylpiperazines useful for treatment of convulsions” (Institut De Recherches Chimiques et Biologiques Appliquees …, priority 1987, dated 1989)
Read-outs that look alike come from different tables or passages of the source.

Experiments:
[1] = oral toxicity in mice (LD50, mortality over 14 days); conditions: mouse, in vivo, po
Method: (§1) The toxicity of the products to be studied was investigated by the oral administration, using an esophageal tube, of each of the said products to male mice with a body weight of 18 to 22 g, divided into groups each containing 10 to 20 animals. The mortality was recorded over a 14-day period.

[2] = test system: convulsions induced by pentetrazole; test: animal or person; conditions: for ED50: Mus musculus, read-out: ED50 in respect of convulsions induced by PTZ, per os, male mice, 30 min after administration, pentetrazole 125 mg/kg i.p., dose protecting 50% of animals; for ED50 / ED50 in respect of convulsions induced by PTZ: 0.5 h; for therapeutic indices compared with reference products: in words, PTZ and MCE, reference: sodium valproate and trimethadione
From the text: (§2) The anticonvulsant properties were investigated on male mice, thirty minutes after the oral administration of the substances to be studied, by the induction of convulsive seizures.

[3] = test system: convulsions induced by supra maximal electroshock (MCE); test: animal or person; conditions: for ED50: Mus musculus, read-out: ED50 in respect of convulsions induced by MCE, per os, male mice, 30 min after administration, electrical stimulation of the cornea, dose protecting 50% of animals; for ED50 / ED50 in respect of convulsions induced by MCE: 0.5 h
Method: as §2
These seizures are caused either by the intraperitoneal injection of pentetrazole (125 mg/kg) or by electrical stimulation of the cornea (supra maximal electroshock, abbreviated to MCE).

[4] = in vivo; type: in vivo; conditions: mouse, po, per os, male mice, Rota-rod 30 min after administration, dose causing 50% of animals to fall, read-out: TD50 (50% neurotoxic dose)
From the text: (§3) The animals (divided into groups each containing ten male mice per dose and per product) are installed on the rod and their fall is observed over the next two minutes.

[5] = test system: male mice; test: in vivo; type: in vivo; conditions: for TD50 (50% neurotoxic dose): per os, male mice, Rota-rod 30 min after administration, dose causing 50% of animals to fall, 30 min
From the text: as §3

[6] = test system: male mice; test: oral toxicity in mice (LD50, mortality over 14 days); conditions: oral (esophageal tube), male mice, groups of 10 to 20, 14 days; Table II
Method: as §1

[7] = LD50, oral (esophageal tube), male mice, groups of 10 to 20, 14 days, Table II
[8] = LD50, per os, male mice, repeated in Table IV
[9] = LD50 per os/ED50 per os, PTZ convulsions
[10] = LD50 per os/ED50 per os, MCE convulsions
[11] = TD50 per os/ED50 per os, MCE convulsions
[12] = TD50 per os/ED50 per os, PTZ convulsions

Compound	LD50 at 336 h [1, 7]	LD50 at 336 h [1, 8]	Therapeutic index PTZ (LD50/ED50) [2, 9]	ED50 ([2]; po)	Therapeutic index MCE (LD50/ED50) [3, 10]	ED50 ([3]; po)	further results
Cl.Cl.O=C(c1cccnc1)N1CCN(c2cccc(C(F)(F)F)c2)CC1 [Ex. 1, 1-nicotinoyl-4-(3-trifluoromethylphenyl)piperazine dihydrochloride]	575 mg/kg	575 mg/kg	33.8	17 mg/kg	30.2	19 mg/kg	therapeutic indices compared with reference products [2]: better than those of the reference products; TD50 at 0.5 h ([4]; rota-rod): 154 mg/kg; Protection index MCE (TD50/ED50) [5, 11]: 8.1; Protection index PTZ (TD50/ED50) [5, 12]: 9.1; protection indices compared with reference products ([5]; mouse, in vivo): better than those of the reference products
O=C(c1cccnc1)N1CCN(c2cccc(Cl)c2)CC1 [Ex. 2, 4-(3-chlorophenyl)-1-nicotinoylpiperazine]	501 mg/kg			50 mg/kg		78 mg/kg	
Cc1cccc(N2CCN(C(=O)c3cccnc3)CC2)c1C [Ex. 3]	> 1000 mg/kg			110 mg/kg		> 200 mg/kg	
O=C(c1cccnc1)N1CCN(c2ccccc2Cl)CC1 [Ex. 4]	> 1000 mg/kg			160 mg/kg		200 mg/kg	
CCOc1ccccc1N1CCN(C(=O)c2cccnc2)CC1 [Ex. 5]	1000 mg/kg			> 200 mg/kg		> 200 mg/kg	
O=C(c1cccnc1)N1CCN(c2cccc(C(F)(F)F)c2)CC1 [Ex. 6, 1-nicotinoyl-4-(3-trifluoromethylphenyl)piperazine]	422 mg/kg	422 mg/kg	32.5	13 mg/kg	21.1	20 mg/kg	therapeutic indices compared with reference products [2]: better than those of the reference products; TD50 at 0.5 h ([4]; rota-rod): 119 mg/kg; Protection index MCE (TD50/ED50) [5, 11]: 6.0; Protection index PTZ (TD50/ED50) [5, 12]: 9.1; protection indices compared with reference products ([5]; mouse, in vivo): better than those of the reference products
O=C(c1cccnc1)N1CCN(c2ccc(C(F)(F)F)cc2)CC1 [Ex. 7]	> 1000 mg/kg			> 200 mg/kg		> 200 mg/kg	
O=C(c1cccnc1)N1CCN(c2ccccc2F)CC1 [Ex. 8]	1000 mg/kg	1000 mg/kg	5.6	180 mg/kg	5.6	180 mg/kg	TD50 at 0.5 h ([4]; rota-rod): 500 mg/kg; Protection index MCE (TD50/ED50) ([5]; mouse, in vivo, po): 2.8; Protection index PTZ (TD50/ED50) ([5]; mouse, in vivo, po): 2.8
O=C(c1cccnc1)N1CCN(c2ccccc2F)CC1 [Ex. 9]							LD50 [6]: > 1000 mg/kg; ED50 in respect of convulsions induced by PTZ ([2]; po): > 200 mg/kg; ED50 in respect of convulsions induced by MCE ([3]; po): > 200 mg/kg
O=C(c1cccnc1)N1CCN(c2ccc(F)cc2)CC1 [Ex. 10, 4-(4-fluorophenyl)-1-nicotinoylpiperazine]	600 mg/kg			62 mg/kg		75 mg/kg	
O=C(c1cccnc1)N1CCN(c2ccc(F)cc2)CC1 [Ex. 11, 4-(4-fluorophenyl)-1-nicotinoylpiperazine]							LD50 at 336 h [1]: 625 mg/kg; ED50 in respect of convulsions induced by PTZ ([2]; po): 68 mg/kg; ED50 in respect of convulsions induced by MCE ([3]; po): 75 mg/kg
O=C(c1cccnc1)N1CCN(c2ccccc2C(F)(F)F)CC1 [Ex. 12]	> 1000 mg/kg			> 200 mg/kg		> 200 mg/kg	
Cc1ccccc1N1CCN(C(=O)c2cccnc2)CC1 [Ex. 13]			6.2	161 mg/kg	5.0	200 mg/kg	LD50 at 336 h [1]: 1000 mg/kg; TD50 at 0.5 h ([4]; in vivo): 800 mg/kg; Protection index MCE (TD50/ED50) [5, 11]: 4.0; Protection index PTZ (TD50/ED50) [5, 12]: 4.9
Cc1ccccc1N1CCN(C(=O)c2cccnc2)CC1 [Ex. 14]	> 1000 mg/kg	> 1000 mg/kg					Therapeutic index PTZ (LD50/ED50) ([2]; mouse, in vivo, po): > 10.0; ED50 in respect of convulsions induced by PTZ ([2]; po): 107 mg/kg; Therapeutic index MCE (LD50/ED50) ([3]; mouse, in vivo, po): < 5.0; ED50 in respect of convulsions induced by MCE ([3]; po): > 200 mg/kg; TD50 at 0.5 h ([4]; rota-rod): 635 mg/kg; Protection index MCE (TD50/ED50) ([5]; mouse, in vivo, po): < 3.0; Protection index PTZ (TD50/ED50) ([5]; mouse, in vivo, po): 5.9
COc1cccc(N2CCN(C(=O)c3cccnc3)CC2)c1 [Ex. 15]	> 1000 mg/kg			183 mg/kg		> 200 mg/kg	
COc1ccc(N2CCN(C(=O)c3cccnc3)CC2)cc1 [Ex. 16]	> 1000 mg/kg			120 mg/kg		> 200 mg/kg	
CCOc1cccc(N2CCN(C(=O)c3cccnc3)CC2)c1 [Ex. 18]	540 mg/kg	540 mg/kg	7.5	72 mg/kg	4.6	118 mg/kg	TD50 at 0.5 h ([4]; rota-rod): 291 mg/kg; Protection index MCE (TD50/ED50) ([5]; mouse, in vivo, po): 2.5; Protection index PTZ (TD50/ED50) ([5]; mouse, in vivo, po): 4.0
CCOc1cccc(N2CCN(C(=O)c3cccnc3)CC2)c1 [Ex. 19]					6.7		Therapeutic index PTZ (LD50/ED50) ([2]; mouse, in vivo, po): 7.0; ED50 in respect of convulsions induced by PTZ ([2]; po): 142 mg/kg; ED50 in respect of convulsions induced by MCE ([3]; po): 150 mg/kg; Protection index MCE (TD50/ED50) ([5]; mouse, in vivo, po): 1.7; Protection index PTZ (TD50/ED50) ([5]; mouse, in vivo, po): 1.8; TD50 (50% neurotoxic dose) [5]: 250 mg/kg
CC(=O)c1ccc(N2CCN(C(=O)c3cccnc3)CC2)cc1 [Ex. 20]	> 1000 mg/kg			> 200 mg/kg		> 200 mg/kg	
Cc1cc(Cl)ccc1N1CCN(C(=O)c2cccnc2)CC1 [Ex. 22, 4-(4-chloro-2-methylphenyl)-1-nicotinoylpiperazine]	540 mg/kg	540 mg/kg	9.8		6.2		ED50 in respect of convulsions induced by PTZ ([2]; po): 55 mg/kg; ED50 in respect of convulsions induced by MCE ([3]; po): 87 mg/kg; Protection index MCE (TD50/ED50) [5, 11]: 3.4; Protection index PTZ (TD50/ED50) [5, 12]: 5.4; TD50 (50% neurotoxic dose) [5]: 300 mg/kg
Cc1ccc(Cl)cc1N1CCN(C(=O)c2cccnc2)CC1 [Ex. 24, 4-(5-chloro-2-methylphenyl)-1-nicotinoylpiperazine]	> 1000 mg/kg	> 1000 mg/kg	> 15.9	63 mg/kg	> 12.0	83 mg/kg	TD50 at 0.5 h ([4]; rota-rod): 525 mg/kg; Protection index MCE (TD50/ED50) [5, 11]: 6.3; Protection index PTZ (TD50/ED50) [5, 12]: 8.3
Cc1cccc(Cl)c1N1CCN(C(=O)c2cccnc2)CC1 [Ex. 26]	> 1000 mg/kg			> 200 mg/kg		> 200 mg/kg	
O=C(c1cccnc1)N1CCN(c2ccccc2)CC1 [Ex. 27]	> 1000 mg/kg			156 mg/kg		> 200 mg/kg	
Cc1cccc(C)c1N1CCN(C(=O)c2cccnc2)CC1 [Ex. 30]	> 1000 mg/kg			138 mg/kg			
CN1C(=O)OC(C)(C)C1=O [TRIM, trimethadione, reference compound]		2180 mg/kg	8.7	251 mg/kg	4.4	500 mg/kg	LD50 at 336 h [1]: 2180 mg/kg; TD50 at 0.5 h ([4]; in vivo): 1000 mg/kg; Protection index MCE (TD50/ED50) ([5]; mouse, in vivo, po): 2.0; Protection index PTZ (TD50/ED50) ([5]; mouse, in vivo, po): 4.0
